Literature values, collected in the CATMoS acute toxicity set (Mansouri et al. 2021).
Several values for one entry are separate records, joined by “and”; a condition that tells them apart may be missing. Identical values can stand only once.

Experiment: rat acute oral toxicity
Settings: in vivo

Compound | LD50
CN(SSC(C)(C)C)C(=O)ON=C1SCCS1 | 5.6 mg/kg
CNC(=O)ON=C1SC(=NN(C)C)SC1(C)C | 1.8 mg/kg
CN(SSN(C)C(=O)ON=C1CSCCS1)C(=O)ON=C1CSCCS1 | 160 mg/kg
O=C(O)CCc1nc(-c2ccccc2)c(-c2ccccc2)o1 | 4470 mg/kg
CCN(CCO)c1cccc(C)c1 | 1370 mg/kg
COC(=O)C(C)N(C(=O)c1ccco1)c1c(C)cccc1C (stereo not given) | 940 mg/kg
Cc1ccc(N=C=O)cc1N=C=O | 5800 mg/kg
CNC(=O)ON=C1C(Cl)C2CC(C#N)C1C2 (stereo not given) | 24 mg/kg
CCS(=O)CCOP(=O)(OC)OC=C(Cl)Cl (stereo not given) | 110 mg/kg
COCc1c(CO)cnc(C)c1O | 2150 mg/kg
CNC(=S)S | 108 mg/kg
CCCc1ccccc1 | 6040 mg/kg
CCC(CN)=C(c1ccccc1)c1ccccc1 | 148 mg/kg
O=C1C(=O)c2ncccc2-c2cccnc21 | 5 mg/kg
Clc1ccc(-c2cccc(Cl)c2Cl)c(Cl)c1 | 4250 mg/kg
O=C(Cl)c1cccc(C(=O)Cl)c1 | 2200 mg/kg
CC(C)c1ccc2c(c1)CC[C@H]1[C@](C)(C(=O)O)CCC[C@]21C | 1710 mg/kg
O=S1OC[C@@H]2[C@H](CO1)[C@]1(Cl)C(Cl)=C(Cl)[C@@]2(Cl)C1(Cl)Cl (stereo not given in full) | 76 mg/kg
CN1CCN(C[C@H]2C(=O)Nc3ccccc3S[C@H]2c2ccccc2)CC1 | 830 mg/kg
Cc1ccccc1C(C)c1ccccc1 (stereo not given) | 1750 mg/kg
CCCCCCCC(=O)Oc1ccc(C)cc1 | 1600 mg/kg
C=CCl | 500 mg/kg
Nc1c2c(nc3ccccc13)CCCC2O (stereo not given) | 176 mg/kg
Cc1c(F)c(N2CCNC(C)C2)cc2c1c(=O)c(C(=O)O)cn2C1CC1 (stereo not given) | 3030 mg/kg
CCCCCCOCCO | 830 mg/kg

Compound | LD50
ClCNc1cc(Cl)ccc1Oc1ccc(Cl)cc1 | 726 mg/kg
CCn1nc(C(=O)O)c(=O)c2cc3c(cc21)OCO3 | 3610 mg/kg
O=C1NC(CCCl)Oc2ccccc21 (stereo not given) | 10000 mg/kg
C[N+]1(C)CCC(OC(=O)C(O)(c2ccccc2)c2cccs2)C1 (stereo not given) | 3580 mg/kg
CC(O)Cn1cnc2c1c(=O)n(C)c(=O)n2C (stereo not given) | 460 mg/kg
O=C1OCCN1/N=C/c1ccc([N+](=O)[O-])o1 | 2340 mg/kg
Nc1c(Cl)cc(C(=O)NC2CC2)cc1Cl | 170 mg/kg
CN(C)C1CSSC1 | 420 mg/kg
OCC(Br)C(Br)CO (stereo not given) | 2460 mg/kg
CCOP(=S)(OCC)Oc1cnc2ccccc2n1 | 26 mg/kg
CC(=O)OCCC1CCCCC1 | 3200 mg/kg
CC[C@H]1C2C[C@H]3[C@@H]4N(C)c5ccccc5C45C[C@@H](C2[C@H]5O)N3[C@@H]1O (stereo not given in full) | 290 mg/kg
Cc1cccc2c1C(=O)C(c1c(Cl)cccc1Cl)C2=O (stereo not given) | 466 mg/kg
O=C1CCCC1 | 2690 mg/kg
CCN(CC)c1ccc(C=O)cc1 | 6400 mg/kg
CCOC(=O)C1=C(C)NC(C)=C(C(=O)OC)C1c1cccc(Cl)c1Cl (stereo not given) | 1050 mg/kg
CCOC(=O)CC(C)(C)C(Cl)C=C(Cl)Cl (stereo not given) | 3170 mg/kg
CC=Cc1ccc(O)c(OC)c1 | 1560 mg/kg
COc1ccc2c(c1OC)C(=O)O[C@@H]2[C@H]1c2c(cc3c(c2OC)OCO3)CCN1C | 1520 mg/kg
Nc1ccc(C(F)(F)F)c(NC(=O)c2cccnc2)c1 | 800 mg/kg
COc1ccc(Oc2ccc(NC(=O)N(C)C)cc2)cc1 | 1000 mg/kg
CC(C)c1ccc(N)cc1 | 985 mg/kg
COc1cc2[nH]c3c(c2cc1OC)CCN1CC2C(C)OC=C(C(=O)OCCN(C)C)C2CC31 (stereo not given) | 2350 mg/kg
C[N+]1(CCCl)CCCO1 (stereo not given) | 3 mg/kg
O=C(Nc1cc(Cl)ccc1Cl)c1cc(Cl)cc(-c2ccccc2)c1O | 6310 mg/kg

Compound | LD50
O=S(=O)(c1ccc(Cl)cc1)c1cc(Cl)c(Cl)cc1Cl | 566 mg/kg
CCCCC(CC)COCCC(=O)O (stereo not given) | 3730 mg/kg
CC1=CCC(=C(C)C)CC1 | 4390 mg/kg
O=S1(=O)CCC(NNc2ccccc2)C1 (stereo not given) | 2380 mg/kg
CC(C)(c1cc(Cl)c(O)c(Cl)c1)c1cc(Cl)c(O)c(Cl)c1 | 7430 mg/kg
Cc1cc(C2CCCCC2)n(O)c(=O)c1 | 2350 mg/kg
C=CC(=O)OCC(C)OCC(C)OCC(C)OC(=O)C=C (stereo not given) | 6200 mg/kg
CCN(COC(C)=O)N=O | 810 mg/kg
CC(=O)N(O)CCCCCNC(=O)CCC(=O)N(O)CCCCCNC(=O)CCC(=O)N(O)CCCCCN | 17300 mg/kg
CSC(C)=NOC(=O)N(C)SN(C(C)C)P1(=S)OCCCO1 | 600 mg/kg
OCCN1CCN(CCCN2c3ccccc3C=Cc3ccccc32)CC1 | 1110 mg/kg and 900 mg/kg
Cn1c2c(c3cc(N)ccc31)CCCC2 | 229 mg/kg
O=NN1CCSC1 | 1950 mg/kg
C=CN | 1850 mg/kg
CS(=O)CC(=O)c1ccccn1 (stereo not given) | 6550 mg/kg
C=CC(=O)OCCOC(=O)c1ccc(C(=O)O)cc1C(=O)O | 3190 mg/kg
CC(=O)[C@H]1CC[C@H]2[C@@H]3CC[C@H]4C[C@H](O)CC[C@]4(C)[C@H]3C(=O)C[C@]12C | 297 mg/kg
O=C1OC(=O)C2CCCCC12 (stereo not given) | 4040 mg/kg
C=C1C(=CC=C2CCCC3(C)C2CCC3C(C)CCCC(C)C)CC(O)CC1O (stereo not given) | 340 mg/kg
OCC(CBr)(CBr)CBr | 1630 mg/kg
CC(=O)c1cc2cccc(OCC(O)CNC(C)C)c2o1 (stereo not given) | 922 mg/kg
CN(C)CC(=O)N1Cc2ccccc2CC2CCCCC21 (stereo not given) | 1400 mg/kg
CCC(C(=O)O)c1ccc(N2Cc3ccccc3C2=O)cc1 (stereo not given) | 373 mg/kg
C=CCOc1ccc([C@H]2c3ccc(OC)cc3OC(C)(C)[C@@H]2c2ccccc2)cc1 | 500 mg/kg
CCOC1CCC=CO1 (stereo not given) | 6160 mg/kg
